Earlier results, collected in patent US6623768B1, “Pharmaceutically active composition extracted from Ferula hermonis and process of its extraction” (priority 2002, dated 2003).

System: adult female rats

COc1cc(C(=O)O[C@H]2CC(C)=CC[C@@]3(C)CC[C@@](O)(C(C)C)[C@H]23)ccc1O [jaeschkeanadiol vanillate]
prevention of pregnancy (administered orally on 1 to 7 post coitum, adult female rats): prevent pregnancy
prevention of pregnancy after single dose (single oral administration of 5 mg per kg on the first day of post coitum, rats): prevented pregnancy
